This note sets out measurements from US9279003B2, “Analogs of sodium channel peptide toxin” (priority 2010, dated 2016).

Test [1] deals with human Nav1.7 (Homo sapiens, UniProt Q15858). Description: cell-based. It counts as cell-based.
The subject of test [2] is Nav1.2 (rBIIa). The format is cell-based, rat.

Where a SMILES comes first, the peptide text is derived from it. Bridges are numbered along the chain shown (N, C = ends). [ ]: non-standard residue; d: D form. αMeL = CC(C)C[C@](C)(N)C(=O)O

human Nav1.7, sequence (Q15858 other isoform, or with tags, fused parts or gaps): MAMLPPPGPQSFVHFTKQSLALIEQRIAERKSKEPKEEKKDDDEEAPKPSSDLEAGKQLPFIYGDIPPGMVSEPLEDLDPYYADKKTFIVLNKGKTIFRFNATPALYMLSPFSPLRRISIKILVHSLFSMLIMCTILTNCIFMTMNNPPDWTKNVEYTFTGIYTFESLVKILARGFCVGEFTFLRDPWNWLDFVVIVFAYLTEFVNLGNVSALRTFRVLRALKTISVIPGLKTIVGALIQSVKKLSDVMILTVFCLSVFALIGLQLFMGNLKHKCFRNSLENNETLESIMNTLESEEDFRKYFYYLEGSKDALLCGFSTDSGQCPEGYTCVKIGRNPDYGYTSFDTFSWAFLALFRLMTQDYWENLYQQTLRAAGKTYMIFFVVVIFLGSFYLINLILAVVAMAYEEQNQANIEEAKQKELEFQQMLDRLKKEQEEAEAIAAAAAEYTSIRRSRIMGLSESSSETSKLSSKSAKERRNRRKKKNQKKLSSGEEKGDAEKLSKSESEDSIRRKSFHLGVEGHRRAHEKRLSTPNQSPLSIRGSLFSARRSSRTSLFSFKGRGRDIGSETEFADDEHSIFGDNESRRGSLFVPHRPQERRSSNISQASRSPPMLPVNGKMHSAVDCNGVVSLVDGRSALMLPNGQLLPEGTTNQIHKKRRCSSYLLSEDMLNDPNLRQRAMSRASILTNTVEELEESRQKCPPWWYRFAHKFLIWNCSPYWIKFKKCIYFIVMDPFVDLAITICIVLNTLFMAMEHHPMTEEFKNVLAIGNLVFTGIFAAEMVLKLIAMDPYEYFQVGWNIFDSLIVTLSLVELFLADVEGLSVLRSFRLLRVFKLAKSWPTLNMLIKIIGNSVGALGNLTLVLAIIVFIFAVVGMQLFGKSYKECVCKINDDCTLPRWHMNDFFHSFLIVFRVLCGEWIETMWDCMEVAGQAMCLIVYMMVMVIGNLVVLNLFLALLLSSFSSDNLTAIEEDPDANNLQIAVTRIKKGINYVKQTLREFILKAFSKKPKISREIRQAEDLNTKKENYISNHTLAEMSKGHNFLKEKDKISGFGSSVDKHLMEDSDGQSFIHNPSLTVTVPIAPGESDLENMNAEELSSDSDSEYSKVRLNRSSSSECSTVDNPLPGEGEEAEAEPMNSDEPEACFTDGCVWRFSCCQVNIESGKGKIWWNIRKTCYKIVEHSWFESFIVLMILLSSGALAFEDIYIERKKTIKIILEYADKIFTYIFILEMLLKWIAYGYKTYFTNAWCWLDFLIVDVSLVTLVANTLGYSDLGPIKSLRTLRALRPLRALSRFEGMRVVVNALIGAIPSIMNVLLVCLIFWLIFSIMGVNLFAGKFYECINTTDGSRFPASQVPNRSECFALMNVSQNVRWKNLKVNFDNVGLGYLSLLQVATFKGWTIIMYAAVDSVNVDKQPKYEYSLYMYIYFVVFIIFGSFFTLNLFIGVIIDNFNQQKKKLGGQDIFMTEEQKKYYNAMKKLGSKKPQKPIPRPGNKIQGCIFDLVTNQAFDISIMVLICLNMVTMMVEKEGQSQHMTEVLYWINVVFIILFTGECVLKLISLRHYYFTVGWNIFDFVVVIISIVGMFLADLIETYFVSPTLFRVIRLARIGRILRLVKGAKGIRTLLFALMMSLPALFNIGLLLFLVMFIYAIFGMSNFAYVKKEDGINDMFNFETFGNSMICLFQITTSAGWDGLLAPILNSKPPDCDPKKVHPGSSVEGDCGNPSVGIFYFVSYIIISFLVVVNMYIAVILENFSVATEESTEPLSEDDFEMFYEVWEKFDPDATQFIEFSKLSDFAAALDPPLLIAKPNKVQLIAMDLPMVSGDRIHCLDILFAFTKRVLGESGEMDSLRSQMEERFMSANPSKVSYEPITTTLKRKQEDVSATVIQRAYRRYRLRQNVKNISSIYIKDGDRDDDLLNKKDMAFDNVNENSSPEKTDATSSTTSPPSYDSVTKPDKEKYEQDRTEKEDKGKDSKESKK

Take `CC[C@H](C)[C@H](NC(=O)[C@H](CC(C)C)NC(=O)[C@H](CCCCN)NC(=O)[C@H](CCCCN)NC(=O)[C@H](CCCCN)NC(=O)[C@@H]1CSSC[C@@H]2NC(=O)[C@H](CCCCN)NC(=O)[C@H](CCCNC(=N)N)NC(=O)[C@H](C)NC(=O)[C@H](CO)NC(=O)[C@H](CC(=O)O)NC(=O)[C@@H]3CSSC[C@H](NC(=O)[C@H](C(C)C)NC(=O)[C@H](CC(C)C)NC(=O)CNC(=O)[C@H](CCC(=O)O)NC(=O)[C@H](CSSC[C@H](NC(=O)[C@@H](N)Cc4ccc(O)cc4)C(=O)N[C@@H](CCC(N)=O)C(=O)N[C@@H](CCCCN)C(=O)N[C@@H](Cc4c[nH]c5ccccc45)C(=O)N[C@@H](CCSC)C(=O)N[C@@H](Cc4c[nH]c5ccccc45)C(=O)N[C@@H]([C@@H](C)O)C(=O)N3)NC2=O)C(=O)N[C@@H](CCCNC(=N)N)C(=O)N[C@@H](CC(C)C)C(=O)N[C@@H](Cc2c[nH]c3ccccc23)C(=O)N1)C(=O)O` [compound 10] (H-YCQKWMWTCDSARKCCEGLVCRLWCKKKLI-OH; disulfide 2-16, 9-21, 15-25): the IC50 in test [1] worked out at 4 nM; in test [2], 98 ± 10 nM. As for `CC[C@H](C)[C@H](NC(=O)[C@@H](NC(=O)[C@H](CCCCN)NC(=O)[C@H](CCCCN)NC(=O)[C@@H]1CSSC[C@@H]2NC(=O)[C@H](CCCCN)NC(=O)[C@H](CCCNC(=N)N)NC(=O)[C@H](CCC(=O)O)NC(=O)[C@H](CO)NC(=O)[C@H](CC(=O)O)NC(=O)[C@@H]3CSSC[C@H](NC(=O)[C@H](C(C)C)NC(=O)[C@H](CCSC)NC(=O)CNC(=O)[C@H](CCC(=O)O)NC(=O)[C@H](CSSC[C@H](NC(=O)[C@@H](N)Cc4ccc(O)cc4)C(=O)N[C@@H](CCC(N)=O)C(=O)N[C@@H](CCCCN)C(=O)N[C@@H](Cc4c[nH]c5ccccc45)C(=O)N[C@@H](CCSC)C(=O)N[C@@H](Cc4c[nH]c5ccccc45)C(=O)N[C@@H]([C@@H](C)O)C(=O)N3)NC2=O)C(=O)N[C@@H](CCCNC(=N)N)C(=O)N[C@@H](CC(C)C)C(=O)N[C@@H](Cc2c[nH]c3ccccc23)C(=O)N1)[C@@H](C)CC)C(=O)O` [compound 5], the figures for the IC50 in test [1] and in test [2] were 552 ± 90 nM and 919 ± 130 nM, respectively. As to `CC[C@H](C)[C@H](NC(=O)[C@H](CCCCN)NC(=O)[C@H](CCCCN)NC(=O)[C@H](CCCCN)NC(=O)[C@@H]1CSSC[C@@H]2NC(=O)[C@H](CCCCN)NC(=O)[C@H](CCCNC(=N)N)NC(=O)[C@H](C)NC(=O)[C@H](CO)NC(=O)[C@H](CC(=O)O)NC(=O)[C@@H]3CSSC[C@H](NC(=O)[C@H](C(C)C)NC(=O)[C@H](CC(C)C)NC(=O)CNC(=O)[C@H](CCC(=O)O)NC(=O)[C@H](CSSC[C@H](NC(=O)[C@@H](N)Cc4ccc(O)cc4)C(=O)N[C@@H](CCC(N)=O)C(=O)N[C@@H](CCCCN)C(=O)N[C@@H](Cc4c[nH]c5ccccc45)C(=O)N[C@@H](CCSC)C(=O)N[C@@H](Cc4c[nH]c5ccccc45)C(=O)N[C@@H]([C@@H](C)O)C(=O)N3)NC2=O)C(=O)N[C@@H](CCCNC(=N)N)C(=O)N[C@@H](CC(C)C)C(=O)N[C@@H](Cc2c[nH]c3ccccc23)C(=O)N1)C(=O)N[C@@H](CC(C)C)C(=O)N[C@@H](Cc1c[nH]c2ccccc12)C(=O)O` [compound 9] (H-YCQKWMWTCDSARKCCEGLVCRLWCKKKILW-OH; disulfide 2-16, 9-21, 15-25), the IC50 in test [1] came out at 1 nM; in test [2], 33 nM. `CC[C@H](C)[C@H](NC(=O)[C@H](CCCNC(=N)N)NC(=O)[C@H](CCCCN)NC(=O)[C@@H]1CSSC[C@@H]2NC(=O)[C@H](CCCCN)NC(=O)[C@H](CCCNC(=N)N)NC(=O)[C@H](CCC(=O)O)NC(=O)[C@H](CCC(=O)O)NC(=O)[C@H](CC(=O)O)NC(=O)[C@@H]3CSSC[C@H](NC(=O)[C@H](C(C)C)NC(=O)[C@H](CC(C)C)NC(=O)CNC(=O)[C@H](CCC(=O)O)NC(=O)[C@H](CSSC[C@H](NC(=O)[C@@H](N)Cc4ccc(O)cc4)C(=O)N[C@@H](CCC(N)=O)C(=O)N[C@@H](CCCCN)C(=O)N[C@@H](Cc4c[nH]c5ccccc45)C(=O)N[C@@H](CCSC)C(=O)N[C@@H](Cc4c[nH]c5ccccc45)C(=O)N[C@@H]([C@@H](C)O)C(=O)N3)NC2=O)C(=O)N[C@@H](CCCNC(=N)N)C(=O)N[C@@H](CC(C)C)C(=O)N[C@@H](Cc2c[nH]c3ccccc23)C(=O)N1)C(=O)N[C@H](C(=O)N[C@@H](CC(N)=O)C(=O)N[C@@H](CCSC)C(=O)O)[C@@H](C)CC` [GsMTx II/PaTX II, reference compound] (H-YCQKWMWTCDEERKCCEGLVCRLWCKRIINM-OH; disulfide 2-16, 9-21, 15-25) displayed an IC50 in test [1] of 260 nM. For the molecule `CC[C@H](C)[C@H](NC(=O)[C@](C)(CC(C)C)NC(=O)[C@H](CCCCN)NC(=O)[C@H](CCCCN)NC(=O)[C@H](CCCCN)NC(=O)[C@@H]1CSSC[C@@H]2NC(=O)[C@H](CCCCN)NC(=O)[C@H](CCCNC(=N)N)NC(=O)[C@H](C)NC(=O)[C@H](CO)NC(=O)[C@H](CC(=O)O)NC(=O)[C@@H]3CSSC[C@H](NC(=O)[C@H](C(C)C)NC(=O)[C@H](CC(C)C)NC(=O)CNC(=O)[C@H](CCC(=O)O)NC(=O)[C@H](CSSC[C@H](NC(=O)[C@@H](N)Cc4ccc(O)cc4)C(=O)N[C@@H](CCC(N)=O)C(=O)N[C@@H](CCCCN)C(=O)N[C@@H](Cc4c[nH]c5ccccc45)C(=O)N[C@@H](CCSC)C(=O)N[C@@H](Cc4c[nH]c5ccccc45)C(=O)N[C@@H]([C@@H](C)O)C(=O)N3)NC2=O)C(=O)N[C@@H](CCCNC(=N)N)C(=O)N[C@@H](CC(C)C)C(=O)N[C@@H](Cc2c[nH]c3ccccc23)C(=O)N1)C(=O)O` [compound 11] (H-YCQKWMWTCDSARKCCEGLVCRLWCKKK[αMeL]I-OH; disulfide 2-16, 9-21, 15-25), the IC50 in test [1] was found to be 10 ± 1 nM; in test [2], 342 ± 73 nM. As for `CSCC[C@@H]1NC(=O)[C@H](Cc2c[nH]c3ccccc23)NC(=O)[C@H](CCCCN)NC(=O)[C@H](CCC(N)=O)NC(=O)[C@@H](NC(=O)[C@@H](N)Cc2ccc(O)cc2)CSSC[C@@H]2NC(=O)[C@@H]3CSSC[C@@H](C(=O)N[C@@H](CCCCN)C(=O)N[C@@H](CCCCN)C(=O)N[C@@H](CCCCN)C(=O)N[C@@H](CC(C)C)C(=O)N[C@@H](Cc4c[nH]c5ccccc45)C(=O)O)NC(=O)[C@H](Cc4c[nH]c5ccccc45)NC(=O)[C@H](CC(C)C)NC(=O)[C@H](CCCNC(=N)N)NC(=O)[C@H](CSSC[C@H](NC(=O)[C@H]([C@@H](C)O)NC(=O)[C@H](Cc4c[nH]c5ccccc45)NC1=O)C(=O)N[C@@H](CC(=O)O)C(=O)N[C@@H](CO)C(=O)N[C@@H](C)C(=O)N[C@@H](CCCNC(=N)N)C(=O)N[C@@H](CCCCN)C(=O)N3)NC(=O)[C@H](C(C)C)NC(=O)[C@H](CC(C)C)NC(=O)CNC(=O)[C@H](CCC(=O)O)NC2=O` [compound 6] (H-YCQKWMWTCDSARKCCEGLVCRLWCKKKLW-OH; disulfide 2-16, 9-21, 15-25), the values for the IC50 in test [1] and in test [2] were 1 nM and 24 ± 10 nM, respectively. For `CC[C@H](C)[C@H](NC(=O)[C@H](CCCCN)NC(=O)[C@H](CCCCN)NC(=O)[C@@H]1CSSC[C@@H]2NC(=O)[C@H](CCCCN)NC(=O)[C@H](CCCNC(=N)N)NC(=O)[C@H](C)NC(=O)[C@H](CO)NC(=O)[C@H](CC(=O)O)NC(=O)[C@@H]3CSSC[C@H](NC(=O)[C@H](C(C)C)NC(=O)[C@H](CC(C)C)NC(=O)CNC(=O)[C@H](CCC(=O)O)NC(=O)[C@H](CSSC[C@H](NC(=O)[C@@H](N)Cc4ccc(O)cc4)C(=O)N[C@@H](CCC(N)=O)C(=O)N[C@@H](CCCCN)C(=O)N[C@@H](Cc4c[nH]c5ccccc45)C(=O)N[C@@H](CCSC)C(=O)N[C@@H](Cc4c[nH]c5ccccc45)C(=O)N[C@@H]([C@@H](C)O)C(=O)N3)NC2=O)C(=O)N[C@@H](CCCNC(=N)N)C(=O)N[C@@H](CC(C)C)C(=O)N[C@@H](Cc2c[nH]c3ccccc23)C(=O)N1)C(=O)N[C@H](C(=O)N[C@@H](Cc1c[nH]c2ccccc12)C(=O)O)[C@@H](C)CC` [compound 14] (H-YCQKWMWTCDSARKCCEGLVCRLWCKKIIW-OH; disulfide 2-16, 9-21, 15-25), the IC50 was determined as 5 ± 1 nM in test [1] and 45 nM in test [2]. For the molecule `CSCC[C@@H]1NC(=O)[C@H](Cc2c[nH]c3ccccc23)NC(=O)[C@H](CCCCN)NC(=O)[C@H](CCC(N)=O)NC(=O)[C@@H](NC(=O)[C@@H](N)Cc2ccc(O)cc2)CSSC[C@@H]2NC(=O)[C@@H]3CSSC[C@@H](C(=O)N[C@@H](CCCCN)C(=O)N[C@@H](CCCCN)C(=O)N[C@@H](CCCCN)C(=O)N[C@@](C)(CC(C)C)C(=O)N[C@@H](Cc4c[nH]c5ccccc45)C(=O)O)NC(=O)[C@H](Cc4c[nH]c5ccccc45)NC(=O)[C@H](CC(C)C)NC(=O)[C@H](CCCNC(=N)N)NC(=O)[C@H](CSSC[C@H](NC(=O)[C@H]([C@@H](C)O)NC(=O)[C@H](Cc4c[nH]c5ccccc45)NC1=O)C(=O)N[C@@H](CC(=O)O)C(=O)N[C@@H](CO)C(=O)N[C@@H](C)C(=O)N[C@@H](CCCNC(=N)N)C(=O)N[C@@H](CCCCN)C(=O)N3)NC(=O)[C@H](C(C)C)NC(=O)[C@H](CC(C)C)NC(=O)CNC(=O)[C@H](CCC(=O)O)NC2=O` [compound 7] (H-YCQKWMWTCDSARKCCEGLVCRLWCKKK[αMeL]W-OH; disulfide 2-16, 9-21, 15-25), the values for the 50% inhibitory concentration (IC50) in test [1] and in test [2] were 8 ± 1 nM and 28 ± 6 nM, respectively. As to `CSCC[C@@H]1NC(=O)CNC(=O)[C@H](CCC(=O)O)NC(=O)[C@@H]2CSSC[C@H](NC(=O)[C@@H](N)Cc3ccc(O)cc3)C(=O)N[C@@H](CCC(N)=O)C(=O)N[C@@H](CCCCN)C(=O)N[C@@H](Cc3c[nH]c4ccccc34)C(=O)N[C@@H](CCSC)C(=O)N[C@@H](Cc3c[nH]c4ccccc34)C(=O)N[C@@H]([C@@H](C)O)C(=O)N[C@H]3CSSC[C@H](NC(=O)[C@H](C(C)C)NC1=O)C(=O)N[C@@H](CCCNC(=N)N)C(=O)N[C@@H](CC(C)C)C(=O)N[C@@H](Cc1c[nH]c4ccccc14)C(=O)N[C@H](C(=O)N[C@@H](CCCCN)C(=O)N[C@@H](CCCCN)C(=O)N[C@@H](CCCCN)C(=O)N[C@@H](CC(C)C)C(=O)N[C@@H](Cc1c[nH]c4ccccc14)C(=O)O)CSSC[C@H](NC(=O)[C@H](CCCCN)NC(=O)[C@H](CCCNC(=N)N)NC(=O)[C@H](C)NC(=O)[C@H](CO)NC(=O)[C@H](CC(=O)O)NC3=O)C(=O)N2` [compound 3], the values for the IC50 in test [1] and in test [2] were 0.2 ± 0.03 nM and 8 ± 2 nM, respectively.

The IC50 is the point on the concentration scale where inhibition reaches its midpoint. Low readings indicate higher potency, high ones lower potency.
